According to patent publication US20260130858A1, “LYOPHILIZED SOVATELTIDE-BASED INJECTABLE FORMULATION AND A PROCESS FOR PREPARATION” (PHARMAZZ, INC., priority 2023, published 2026):

What was measured:
[1] = Solution stability, related substances HPLC method validation (Method 1); details: standard solution at 5° C.; related substances Method 1
Excerpt: Chromatographic Parameters for method validation of Related Substance of Sovateltide Injection (Method 1): Method-1 utilizes chromatographic conditions to separate and quantify a specific compound of interest. The analytical column used is either the Xtimate C18 Column or the ChromCore 120 C18 Column, both with dimensions of 4.6×250 mm and 5 m. A Ghost Buster Column with dimensions of 4.6×50 mm is used to detect any unexpected peaks, which are usually called ghost peaks that may interfere with the results. The flow rate is set to 0.5 mL/min, with an injection volume of 90 μL. The detection wavelength is 215 nm, and the auto sampler temperature is maintained at 5° C. The column oven temperature is set to 50° C., and the run time for the method is 120 min. […] These parameters ensure the separation and accurate quantification of the compound in the sample.
• Mobile Phase A (KH2PO4+ Sodium Chloride in HPLC water). • Mobile Phase-B (Methanol).

[2] = tested on: acute cerebral ischemic stroke patients; test: Phase III study in acute cerebral ischemic stroke patients, modified Rankin Scale at day 90; assay type: in vivo, human; details: for Odds ratio, change in mRS of 2 or more / Odds ratio, mRS of 0-2 day 90 / Relative Risk, change in mRS of 2 or more / Relative Risk, mRS of 0-2 day 90: control vs sovateltide; for Modified Rankin Scale Day 90, mean: day 90 post-randomization; for Difference between means (B − A) ± SEM, Modified Rankin Scale Day 90: sovateltide minus control
Protocol: A prospective, multicentric, randomized phase III study was conducted in acute cerebral ischemic stroke patients aged 18 years through 78 years. Patients with radiologic confirmation of ischemic stroke could be enrolled if presenting up to 24 hours after the onset of symptoms and with a modified Rankin Score (mRS) of 3 to 4 and an NIHSS (National Institute of Health Stroke Scale) score of greater than 5. Patients with intracranial haemorrhage and those receiving endovascular therapy were excluded.
Patients were randomized in a 1:1 ratio, 80 patients to the sovateltide group and 78 patients to the control (saline) group. Every patient received the standard of care (SOC) and was followed for 90 days. The study drug (normal saline or sovateltide (0.3 μg/kg) was administered in three doses administered as an intravenous bolus over 1 minute at an interval of 3 hours±1 hour on day 1, day 3, and day 6 (total sovateltide dose of 0.9 μg/kg/day).
The primary objectives were to determine the neurological outcome based on modified Rankin Scale (mRS) score, National Institute of Health Stroke Scale (NIHSS) score, and Barthel Index (BI) scale score from day 1 through day 90. In addition, quality-of-Life was measured by EuroQol-EQ-5D (EQ-5D) and stroke-specific quality-of-life (SSQoL) scores at 60 days and 90 days of treatment.
A total of 158 patients with acute cerebral ischemic stroke were enrolled in this test, of which 137 completed 90-day follow-up. Patients received saline (n=70; 45 male and 25 female) or sovateltide (n=67; 45 male and 22 female) within 24 hours of the onset of stroke. Patients received the investigational drug […] at 16.85±0.74 and 17.40±0.67 hours (mean±SEM, p=0.583) of stroke onset in control and sovateltide cohorts, respectively. The baseline characteristics and SOC in both cohorts were similar.

[3] = with cerebrolysin, listed as sovateltide
[4] = with citicoline, listed as sovateltide
[5] = with mannitol, sovateltide group n=30
[6] = with mannitol, sovateltide group n=30, listed as sovateltide
[7] = with thrombolytics, listed as sovateltide

For “succinyl-(glutamyl(9)-alanyl(11,15))-endothelin-1 (8-21) [Sovateltide]”, the “Time standard solution is stable” value [1] was “up to 60 Hours”, the “Number of patients with change in mRS < 2 from day 1 to day 90” value ([2]; with cerebrolysin) was 1 and the “Number of patients with mRS 0-2 day 90” value ([2]; with cerebrolysin) was 11. The “Number of patients with mRS > 2 day 90” value ([2]; with cerebrolysin) was 1, the “Number of patients, change in mRS of 2 or more from day 1 to day 90 (column head mRS > 2)” value ([2]; with cerebrolysin) was 11 and the “Percentage of row total, change in mRS < 2” value ([2]; with cerebrolysin) was 8.33%. The “Percentage of row total, change in mRS ≥ 2” value ([2]; with cerebrolysin) was 91.67%, the “Percentage of row total, mRS 0-2 day 90” value ([2]; with cerebrolysin) was 91.67% and the “Percentage of row total, mRS > 2 day 90” value ([2]; with cerebrolysin) was 8.33%. The “Odds ratio, change in mRS of 2 or more” value ([2]; with cerebrolysin) was 0.5455, the “Odds ratio, mRS of 0-2 day 90” value ([2]; with cerebrolysin) was 0.8462 and the “Relative Risk, change in mRS of 2 or more” value (shortened to “Relative Risk, change in mRS”) ([2]; with cerebrolysin) was 0.9351. The “Relative Risk, mRS of 0-2 day 90” value ([2]; with cerebrolysin) was 0.8571, the “Modified Rankin Scale Day 90, mean” value ([2]; with cerebrolysin, sovateltide group n=12) was 0.7500 and the “Number of patients with mRS 0-2 day 90” value [2, 3] was “similar”. For the same substance, the “Number of patients, change in mRS of 2 or more from day 1 to day 90 (column head mRS > 2)” value [2, 3] was “similar”, the “Difference between means (B − A) ± SEM, Modified Rankin Scale Day 90” value (from here on “Difference between means (B − A) ± SEM”) ([2]; with cerebrolysin) was −0.3214 ± 0.3517 and the “Number of patients with change in mRS < 2 from day 1 to day 90” value ([2]; with citicoline) was 5. The “Number of patients with change in mRS ≥ 2 from day 1 to day 90” value ([2]; with citicoline) was 18, the “Number of patients with mRS 0-2 day 90” value ([2]; with citicoline) was 21 and the “Number of patients with mRS > 2 day 90” value ([2]; with citicoline) was 3. For the same substance, the “Percentage of row total, change in mRS < 2” value ([2]; with citicoline) was 21.74%, the “Percentage of row total, change in mRS ≥ 2” value ([2]; with citicoline) was 78.26% and the “Percentage of row total, mRS 0-2 day 90” value ([2]; with citicoline) was 87.50%. The “Percentage of row total, mRS > 2 day 90” value ([2]; with citicoline) was 12.50%, the “Odds ratio, change in mRS of 2 or more” value ([2]; with citicoline) was 0.3283 and the “Odds ratio, mRS of 0-2 day 90” value ([2]; with citicoline) was 4.500. The “Relative Risk, change in mRS” value ([2]; with citicoline) was 0.6921, the “Relative Risk, mRS of 0-2 day 90” value ([2]; with citicoline) was 3.130 and the “Modified Rankin Scale Day 90, mean” value ([2]; with citicoline, sovateltide group n=24) was 1.208. The “Modified Rankin Scale Day 90, mean” value ([2]; with citicoline, sovateltide group n=24, listed as sovateltide) was “significantly lower”, the “Number of patients with change in mRS ≥ 2 from day 1 to day 90” value [2, 4] was “significantly more” and the “Number of patients with mRS 0-2 day 90” value [2, 4] was “significantly more”. For the same substance, the “Difference between means (B − A) ± SEM” value ([2]; with citicoline) was −0.7917 ± 0.3638, the “Percentage of row total, change in mRS < 2” value ([2]; with mannitol) was 36.67% and the “Percentage of row total, change in mRS ≥ 2” value ([2]; with mannitol) was 63.33%. For the same substance, the “Percentage of row total, mRS 0-2 day 90” value ([2]; with mannitol) was 63.33%, the “Percentage of row total, mRS > 2 day 90” value ([2]; with mannitol) was 36.67% and the “Odds ratio, change in mRS of 2 or more” value ([2]; with mannitol) was 0.3184. The “Odds ratio, mRS of 0-2 day 90” value ([2]; with mannitol) was 2.735, the “Relative Risk, change in mRS” value ([2]; with mannitol) was 0.5603 and the “Relative Risk, mRS of 0-2 day 90” value ([2]; with mannitol) was 1.672. The “Modified Rankin Scale Day 90, mean” value [2, 5] was 2.033, the “Modified Rankin Scale Day 90, mean” value [2, 6] was “significantly lower” and the “Number of patients with change in mRS < 2 from day 1 to day 90” value [2, 5] was 11. For the same substance, the “Number of patients with change in mRS ≥ 2 from day 1 to day 90” value [2, 5] was 19, the “Number of patients with mRS 0-2 day 90” value [2, 5] was 19 and the “Number of patients with mRS > 2 day 90” value [2, 5] was 11. The “Number of patients with change in mRS ≥ 2 from day 1 to day 90” value [2, 6] was “significantly more”, the “Number of patients with mRS 0-2 day 90” value [2, 6] was “significantly more” and the “Difference between means (B − A) ± SEM” value ([2]; with mannitol) was −0.7086 ± 0.3316. For the same substance, the “Number of patients with change in mRS < 2 from day 1 to day 90” value ([2]; with thrombolytics) was 3, the “Number of patients with change in mRS ≥ 2 from day 1 to day 90” value ([2]; with thrombolytics) was 6 and the “Number of patients with mRS 0-2 day 90” value ([2]; with thrombolytics) was 6. For the same substance, the “Number of patients with mRS > 2 day 90” value ([2]; with thrombolytics) was 3, the “Percentage of row total, change in mRS < 2” value ([2]; with thrombolytics) was 33.33% and the “Percentage of row total, change in mRS ≥ 2” value ([2]; with thrombolytics) was 66.67%. The “Percentage of row total, mRS 0-2 day 90” value ([2]; with thrombolytics) was 66.67%, the “Percentage of row total, mRS > 2 day 90” value ([2]; with thrombolytics) was 33.33% and the “Odds ratio, change in mRS of 2 or more” value ([2]; with thrombolytics) was 0.7500. For the same substance, the “Odds ratio, mRS of 0-2 day 90” value ([2]; with thrombolytics) was 1.333, the “Relative Risk, change in mRS” value ([2]; with thrombolytics) was 0.9000 and the “Relative Risk, mRS of 0-2 day 90” value ([2]; with thrombolytics) was 1.200. The “Modified Rankin Scale Day 90, mean” value ([2]; with thrombolytics, sovateltide group n=9) was 1.667, the “Number of patients with change in mRS ≥ 2 from day 1 to day 90” value [2, 7] was “similar” and the “Number of patients with mRS 0-2 day 90” value [2, 7] was “similar”. For the same substance, the “Difference between means (B − A) ± SEM” value ([2]; with thrombolytics) was −0.2833 ± 0.6321.
